Columns and labels:
Assay type in all cases: in vivo
Conditions in all cases: evaluated after 13 days
[1] = tested on: Alopecurus myosuroides (ALOMY); assay: B1 pre-emergence herbicidal activity
Protocol: (§1) Seeds of a variety of test species were sown in standard soil in pots: Triticum aestivium (TRZAW), Oryza sativa (ORYSA), Avena fatua (AVEFA), Alopecurus myosuroides (ALOMY), Echinochloa crus-galli (ECHCG), Lolium perenne (LOLPE). After cultivation for one day (pre-emergence) under controlled conditions in a glasshouse (at 24/16° C., day/night; 14 hours light; 65% humidity), the plants were sprayed with an aqueous spray solution derived from the formulation of the technical active ingredient in acetone/water (50:50) solution containing 0.5% Tween 20 (polyoxyethelyene sorbitan monolaurate, CAS RN 9005-64-5). The test plants were then grown in a glasshouse under controlled conditions (at 24/16° C., day/night; 14 hours light; 65% humidity) and watered twice daily. After 13 days, the test was evaluated (5=total damage to plant; 0=no damage to plant).

[2] = tested on: Avena fatua (AVEFA); assay: B1 pre-emergence herbicidal activity
Protocol: as §1

[3] = tested on: Echinochloa crus-galli (ECHCG); assay: B1 pre-emergence herbicidal activity
Protocol: as §1

[4] = tested on: Lolium perenne (LOLPE); assay: B1 pre-emergence herbicidal activity
Protocol: as §1

[5] = tested on: Oryza sativa (ORYSA); assay: B1 pre-emergence herbicidal activity
Protocol: as §1

[6] = tested on: Triticum aestivium (TRZAW); assay: B1 pre-emergence herbicidal activity
Protocol: as §1

[7] = tested on: Alopecurus myosuroides (ALOMY); assay: B2 post-emergence herbicidal activity
Protocol: (§2) Seeds of a variety of test species were sown in standard soil in pots: Triticum aestivium (TRZAW), Oryza sativa (ORYSA), Avena fatua (AVEFA), Alopecurus myosuroides (ALOMY), Echinochloa crus-galli (ECHCG), Lolium perenne (LOLPE). After 8 days cultivation (post-emergence) under controlled conditions in a glasshouse (at 24/16° C., day/night; 14 hours light; 65% humidity), the plants were sprayed with an aqueous spray solution derived from the formulation of the technical active ingredient in acetone/water (50:50) solution containing 0.5% Tween 20 (polyoxyethelyene sorbitan monolaurate, CAS RN 9005-64-5). The test plants were then grown in a glasshouse under controlled conditions (at 24/16° C., day/night; 14 hours light; 65% humidity) and watered twice daily. After 13 days, the test was evaluated (5=total damage to plant; 0=no damage to plant).

[8] = tested on: Avena fatua (AVEFA); assay: B2 post-emergence herbicidal activity
Protocol: as §2

[9] = tested on: Echinochloa crus-galli (ECHCG); assay: B2 post-emergence herbicidal activity
Protocol: as §2

[10] = tested on: Lolium perenne (LOLPE); assay: B2 post-emergence herbicidal activity
Protocol: as §2

[11] = tested on: Oryza sativa (ORYSA); assay: B2 post-emergence herbicidal activity
Protocol: as §2

[12] = tested on: Triticum aestivium (TRZAW); assay: B2 post-emergence herbicidal activity
Protocol: as §2

SMILES | Control of ALOMY after pre-emergence application (damage score 0-5) ([1]; Rate 1000 g/ha) | Control of AVEFA after pre-emergence application (damage score 0-5) ([2]; Rate 1000 g/ha) | Control of ECHCG after pre-emergence application (damage score 0-5) ([3]; Rate 1000 g/ha) | Control of LOLPE after pre-emergence application (damage score 0-5) ([4]; Rate 1000 g/ha) | Control of ORYSA after pre-emergence application (damage score 0-5) ([5]; Rate 1000 g/ha) | Control of TRZAW after pre-emergence application (damage score 0-5) ([6]; Rate 1000 g/ha) | Control of ALOMY after post-emergence application (damage score 0-5) ([7]; Rate 1000 g/ha) | Control of AVEFA after post-emergence application (damage score 0-5) ([8]; Rate 1000 g/ha) | Control of ECHCG after post-emergence application (damage score 0-5) ([9]; Rate 1000 g/ha) | Control of LOLPE after post-emergence application (damage score 0-5) ([10]; Rate 1000 g/ha) | Control of ORYSA after post-emergence application (damage score 0-5) ([11]; Rate 1000 g/ha) | Control of TRZAW after post-emergence application (damage score 0-5) ([12]; Rate 1000 g/ha) | further results
CN(C(=O)OC(C)(C)C)c1cn(-c2cncnc2)nc1C(F)(F)F [Compound A6] | 0 | 3 | 5 | 1 | 2 | 0 | 3 | 1 | 5 | 1 | 5 | 1 | –
CC(C)(C)OC(=O)Nc1cn(-c2cccnc2)nc1C(F)(F)F [Compound A7] | – | – | – | – | – | – | – | – | – | – | – | – | Control of ALOMY after pre-emergence application (damage score 0-5) ([1]; Rate 500 g/ha): 0; Control of AVEFA after pre-emergence application (damage score 0-5) ([2]; Rate 500 g/ha): 0; Control of ECHCG after pre-emergence application (damage score 0-5) ([3]; Rate 500 g/ha): 2; Control of LOLPE after pre-emergence application (damage score 0-5) ([4]; Rate 500 g/ha): 0; Control of ORYSA after pre-emergence application (damage score 0-5) ([5]; Rate 500 g/ha): 1; Control of TRZAW after pre-emergence application (damage score 0-5) ([6]; Rate 500 g/ha): 0; Control of ALOMY after post-emergence application (damage score 0-5) ([7]; Rate 500 g/ha): 2; Control of AVEFA after post-emergence application (damage score 0-5) ([8]; Rate 500 g/ha): 2; Control of ECHCG after post-emergence application (damage score 0-5) ([9]; Rate 500 g/ha): 4; Control of LOLPE after post-emergence application (damage score 0-5) ([10]; Rate 500 g/ha): 1; Control of ORYSA after post-emergence application (damage score 0-5) ([11]; Rate 500 g/ha): 1; Control of TRZAW after post-emergence application (damage score 0-5) ([12]; Rate 500 g/ha): 0
Cc1nn(-c2cncc(F)c2)cc1N(C)C(=O)OC(C)(C)C [Compound A10] | 0 | 2 | 4 | 1 | 1 | 0 | 1 | 3 | 4 | 1 | 1 | 0 | –
CN(C(=O)OC(C)(C)C)c1cc(-c2cncnc2)nn1C [Compound A14] | 1 | 3 | 3 | 0 | 0 | 1 | 1 | 4 | 4 | 3 | 0 | 1 | –
Cc1nn(-c2cncnc2)cc1N(C)C(=O)NC(C)(C)C [Compound A16] | 1 | 1 | 2 | 1 | 1 | 1 | 1 | 3 | 4 | 2 | 0 | 1 | –
